Results taken from patent publication US12054744B2, “NK cells exhibiting an adaptive phenotype and methods for preparing and for using” (Regents of the University of Minnesota, priority 2015, dated 2024).
Several values for one entry are separate records, joined by “and”; a condition that tells them apart may be missing. Equal values may be shown once.

Tested on: cord blood-derived CD56^+ NK cells
Assay: Cord blood-derived NK cell culture on OP9 native or OP9-DL1 stromal cells with IL-15 with or without IL-21; FACS for CD57 and SYK
Type: cell-based, human
Method: OP9 stromal cells transduced with either the empty MigR1 retroviral vector (OP9 native) or with the MigR1 retroviral vector containing the Delta-like 1 gene (OP9-DL1) (Schmitt et al. Immunity. 2002; 17(6):749-756) were cultured in MEMα media+20% fetal bovine serum (FBS) at a concentration of 4×10^5 cells/well in 24-well plates for two days to allow for cell adherence. Plates were then irradiated with 2,000 cGy to stop cell proliferation.
Mononuclear cells were isolated from whole cord blood by density gradient centrifugation. T cells and B cells were depleted by positive magnetic selection using anti-CD3 and anti-CD19 microbeads, respectively. CD3/CD19-depleted cells were then added to irradiated OP9 cells at a concentration of 5×10^5 cells/well and cultured for 14 days in RPMI media+10% FBS supplemented with either 1 ng/mL IL-15 or 10 ng/mL IL-15 with or without 50 ng/mL IL-21.
Cord blood-derived NK cells were analyzed before culture and after 7 and 14 days of culture by fluorescence activated cell sorting (FACS) using the following extracellular and intracellular antibodies: BV785-conjugated anti-CD3 (BioLegend, San Diego, CA), PE-Cy7-conjugated anti-CD56 (BioLegend, San Diego, CA), BV605-conjugated anti-CD57 (BioLegend, San Diego, CA), APC-conjugated SYK (eBioscience, San Diego, CA), and PE-conjugated anti-PLZF (BD Biosciences, San Jose, CA).
The Notch signaling pathway plays an essential role in effector CD8^+ T cell differentiation and controls the acquisition of effector function (Backer et al. Nat Immunol. 2014; 15(12):1143-1151). To determine if Notch signaling could play a role in driving the differentiation and expansion of terminally differentiated and adaptive NK cell subsets, CD3/CD19-depleted mononuclear cells were cultured from cord blood on native OP9 stromal cells or OP9 stromal cells stably transduced with the Notch ligand DL1 in the presence of low-dose (1 ng/mL) IL-15 or high-dose (10 ng/mL) IL-15 with or without IL-21 (50 ng/mL). Cells were harvested at days 7 and 14, and CD56^+ NK cells were analyzed by fluorescence activated cell sorting (FACS) for expression of CD57 and SYK. Prior to culture, an average of 2.13%±0.44 of CD56^+ NK cells expressed CD57.

[1] = OP9-DL1, high-dose (10 ng/mL) IL-15, day 7
[2] = OP9-DL1, high-dose (10 ng/mL) IL-15, day 14
[3] = OP9-DL1, low-dose (1 ng/mL) IL-15, day 7
[4] = OP9-DL1, low-dose (1 ng/mL) IL-15, day 14
[5] = OP9 native, high-dose (10 ng/mL) IL-15, day 7
[6] = OP9 native, high-dose (10 ng/mL) IL-15, day 14
[7] = OP9 native, low-dose (1 ng/mL) IL-15, day 7
[8] = OP9 native, low-dose (1 ng/mL) IL-15, day 14

IL-15: cytokine in culture medium, low-dose 1 ng/mL or high-dose 10 ng/mL
percentage of CD56^+ NK cells expressing CD57 [1]: 1.30%±0.31 | percentage of CD56^+ NK cells lacking SYK [1]: 0.34%±0.04 and 0.67%±0.10 | percentage of CD56^+ NK cells expressing CD57 [2]: 0.86%±0.44 | percentage of CD56^+ NK cells lacking SYK [2]: 0.43%±0.15 | percentage of CD56^+ NK cells expressing CD57 [3]: 0.91%±0.34 | percentage of CD56^+ NK cells lacking SYK [3]: 0.25%±0.06 | percentage of CD56^+ NK cells expressing CD57 [4]: 0.93%±0.40 | percentage of CD56^+ NK cells lacking SYK [4]: 0.17%±0.08 | percentage of CD56^+ NK cells expressing CD57 [5]: 0.70%±0.23 | percentage of CD56^+ NK cells lacking SYK [5]: 0.21%±0.05 | percentage of CD56^+ NK cells expressing CD57 [6]: 0.22%±0.10 | percentage of CD56^+ NK cells lacking SYK [6]: 0.43%±0.15 | percentage of CD56^+ NK cells expressing CD57 [7]: 0.59%±0.19 | percentage of CD56^+ NK cells lacking SYK [7]: 0.18%±0.06 | percentage of CD56^+ NK cells expressing CD57 [8]: 0.24%±0.11 | percentage of CD56^+ NK cells lacking SYK [8]: 0.07%±0.03
